Experimental data published in patent US7419999B2, “Gamma lactams as prostaglandin agonists and use thereof” (Applied Research Systems ARS Holding N.V., priority 2002, dated 2008).
Read-outs that look alike come from different tables or passages of the source.

Assays:
h-EP2 = h-EP2 (Homo sapiens, UniProt P43116); experiment: Prostaglandin EP2 receptor binding assay (3H-PGE2 SPA)
Experimental: Compounds of the invention were tested in an EP2 receptor binding assay of the following protocol. As referred to herein, the term an “EP2 receptor binding assay” designates the following protocol.

mature 10-week CD-1 mice = experiment: In vivo ovulation assay (mature mouse ovulation induction model); details: for ED50: Mus musculus; for average of ova obtained: 5IU PMSG priming
Experimental: Ovulation triggering activity of compounds of the invention are tested in a mature mouse ovulation induction model.
Mature 10-week-old CD-mice are used. […] A test compound (based on solubility) is pre-dissolved in ethanol, DMSO or other reagents. Test compound is then diluted with saline or other diluents such as PBS or NP3S (5% N-methyl-pyrrolidinone/30% PEG-400/25% PEG-200/20% Propylene Glycol in saline). PMSG serves to stimulate follicule growth and maturation.
Uterus, oviducts and ovaries were collected and placed in pre-labeled dishes containing phosphate buffered saline (PBS). The collected tissues were transferred to the laboratory and intact oviduct carefully dissected out from uterus and ovary under the dissection microscope. The dissected oviducts were placed on the glass microscopic slide and covered with another slide. Two slides were taped on two edges. The numbers of ovulated ova in the oviducts were counted using upright microscope with 4× objective and recorded.
For evaluating the oral activity of this compound, two experiments were conducted, the first experiment was conducted with non-fasted animals and the second experiment was conducted in 24 h fasted animals (water provided). The compounds of the invention, according to their solubility are pre-dissolved in ethanol, DMSO or other reagents. The compounds of the invention are then diluted with saline or other diluents such as PBS or NP3S before oral administration.

h-EP4 [1] = molecular target: T1, h-EP4 (Homo sapiens, UniProt P35408); experiment: EP4 cAMP assay in HEK293-EBNA cells transfected with pCEP4-hEP4; type: cell-based
T1 sequence (P35408 whole entry): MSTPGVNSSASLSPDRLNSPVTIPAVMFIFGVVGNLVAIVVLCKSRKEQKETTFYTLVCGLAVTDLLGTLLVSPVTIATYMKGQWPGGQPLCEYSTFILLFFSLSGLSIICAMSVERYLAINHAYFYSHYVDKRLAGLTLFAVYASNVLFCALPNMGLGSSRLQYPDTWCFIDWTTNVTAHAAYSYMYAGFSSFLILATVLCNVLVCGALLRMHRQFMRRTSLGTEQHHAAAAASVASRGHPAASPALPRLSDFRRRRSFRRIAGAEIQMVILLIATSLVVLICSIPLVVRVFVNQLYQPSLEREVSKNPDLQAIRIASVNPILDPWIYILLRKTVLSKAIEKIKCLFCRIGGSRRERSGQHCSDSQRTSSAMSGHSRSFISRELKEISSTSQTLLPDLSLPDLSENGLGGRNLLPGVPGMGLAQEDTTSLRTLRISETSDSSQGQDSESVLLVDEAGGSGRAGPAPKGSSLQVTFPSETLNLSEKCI
Experimental: Compounds of the invention were tested in a total cAMP assay as follows. […] After overnight incubation, the medium was removed from each well and replaced with 45 μl of assay medium consisted of phenol red free D-MEM/F-12, 0.1% BSA (GibcoBRL) and 0.1 mM3-isobutyl-1-methyl-xanthine (Sigma). […] Total cAMP (intra- and extra-cellular) was measured by using a cAMP-screen ELISA System (Tropix, #CS1000).

h-EP4 [2] = molecular target: T1, h-EP4; experiment: EP4 receptor binding assay (3H-PGE2 SPA)
Experimental: Compounds of the invention were tested in an EP4 receptor binding assay of the following protocol.

[3] = system: methacholine-induced bronchoconstriction; experiment: In vivo inhibition of guinea pig methacholine-induced bronchoconstriction; details: for ED50: Cavia porcellus
Experimental: Guinea pig pulmonary-cholinergic in vivo model is generally used to test the materials for the treatments of asthma in human (Fleisch at al. 1985, K. Pharmacol. Exp. Ther. 233: 148-157). Compounds of the invention are tested in this model.
Groups of 3 Duncan Hartley derived male or female guinea pigs weighing 250±50 g are anesthetized with pentobarbital sodium (50 mg/kg i.p., plus an additional 15 mg/kg i.p. if required) and succinylcholine chloride (2 mg/animal i.p.) is subsequently administered to prevent spontaneous respiration. Body temperature is maintained at 37° to 38° C.
The trachea is cannulated and the guinea pig is ventilated with a Harvard rodent respirator in a closed system. Tracheal pressure is recorded through a side-arm of the cannula connected to a P23ID Statham transducer. Respiratory rate is set at 50 strokes/minute with a stroke volume (approximately 1 ml/100 g) sufficient to produce a baseline tracheal pressure of 6 cm H2O. Mean arterial pressure (BP) is monitored from a cannulated carotid artery, and heart-rate (HR) is obtained from chest electrodes arranged for lead II. The jugular vein is cannulated for i.v. vehicle or drug administration in a volume of 1 ml/kg.
Cholinergic-induced bronchoconstrictor responses, reflected as increases in tracheal pressure (cm H2O), are elicited by administration of methacholine hydrochloride (10 μg/kg base weight i.v.). In vehicle-treated control animals, methacholine-induced bronchoconstriction ranges from 70 to 90 percent of its own maximum response (about 40 to 65 percent of maximum possible bronchoconstriction obtained by tracheal occlusion).
Compounds of the invention are also tested via intratracheal (IT) route of administration. In this other experiment, compound of the invention, reference compound or vehicle is administered IT 10 (5 min for experiment 1 and 2) minutes before methacholine chloride (10 μg/kg i.v.) induced bronchoconstriction. Tracheal pressure (ITP), blood pressure and heart rate are measured immediately as indicated in the material and methods sections.
MED (medium effective dose) is measured.
Compounds of the invention are administered i.v. (10 mg/kg) 5 minutes before subministration of the methacoline hydrochloride challenge in 3 guinea pigs. A 50 percent or more (≧50) inhibition of the induced bronchoconstriction relative to vehicle treated control animals is considered significant.

TNFα = experiment: In vivo inhibition of LPS-induced TNFa release in mice; details: oral; Inhibitory Dose at 50% of the maximum effect
Experimental: The anti-inflammatory activity of compounds of the invention may be assessed after a LPS challenge using the following protocol:
Eight weeks old C3H/HEN mice (IFFA-CREDO, L'arbresle, France) receive an oral treatment with compounds of the invention 6 different doses (0.001, 0.01, 0.1, 1 or 3 and 10 mg/kg in 0.5% CMC/0.25% tween-20). Six mice are used by group. Fifteen minutes later, endotoxins (O111:B4 Sigma, 0.3 mg/kg) are intraperitoneally injected. Heparinized whole blood is collected by decapitation. TNFα level is determined in plasma by ELISA (R & D Systems, Abdingdon, UK). Control animals receive 0.5% CMC/0.25% tween-20 (10 ml/kg) as vehicle. Data obtained from experiments are expressed as the mean±SEM and analysed using one-way analysis of variance (ANOVA) followed by Dunnett's t-test.

[4] = po, Table 3, p.o., read-out: Ovulation Induction (ED50, mg/kg) p.o.
[5] = sc, Table 3, s.c., read-out: Ovulation Induction (ED50, mg/kg) s.c.
[6] = Table 2, total cAMP, read-out: h-EP4 EC50
[7] = read-out: Ki measured as described in Example 83 (EP4)
[8] = sc, read-out: calculated ED50, ovulation induction

h-EP2, sequence (P43116 whole entry): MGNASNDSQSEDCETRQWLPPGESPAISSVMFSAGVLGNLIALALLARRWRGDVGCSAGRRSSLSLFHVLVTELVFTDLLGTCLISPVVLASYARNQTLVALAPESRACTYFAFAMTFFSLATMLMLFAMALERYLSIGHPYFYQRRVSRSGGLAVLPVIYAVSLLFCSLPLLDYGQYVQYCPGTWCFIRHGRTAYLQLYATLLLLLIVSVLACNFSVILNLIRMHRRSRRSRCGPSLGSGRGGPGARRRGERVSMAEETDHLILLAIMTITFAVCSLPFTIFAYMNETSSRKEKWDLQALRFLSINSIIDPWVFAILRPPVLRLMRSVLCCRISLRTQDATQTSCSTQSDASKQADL

Row | Structure (SMILES) | Ki (h-EP2; Table 1, read-out: h-EP2 Ki) [nM] | ED50 (mature 10-week CD-1 mice; [4]) [mg/kg] | ED50 (mature 10-week CD-1 mice; [5]) [mg/kg] | Ki (h-EP4 [2]; Table 1, read-out: h-EP4 Ki) [nM] | Ki (h-EP4 [2]; Table 2, read-out: h-EP4 Ki) [nM] | other results
1 | CCCCC(C)(C)C(O)/C=C/[C@H]1CCC(=O)N1CCc1ccc(C(=O)O)cc1 (stereo in doubt) [Example 5, 4-(2-{2-[(1E,3S)-3-hydroxy-4,4-dimethyloct-1-enyl]-5-oxopyrrolidin-1-yl}ethyl)benzoic acid] | 1240 | 18 | 3 | 0.732 |  | EC50 (h-EP4 [1]; [6]): 0.014 nM
2 | CCCCC(C)(C)C(O)/C=C/[C@H]1CCC(=O)N1CCc1ccc(C(=O)O)cc1 (stereo in doubt) [Example 6, 4-(2-{2-[(1E,3R)-3-hydroxy-4,4-dimethyloct-1-enyl]-5-oxopyrrolidin-1-yl}ethyl)benzoic acid] | 2100 |  |  | 20 |  | 
3 | O=C(O)c1ccc(CCN2C(=O)CCN2CCC(O)Cc2cccc(I)c2)cc1 (centres unmarked) [4-(2-{2-.[4-(3-iodophenyl)-3-hydroxybutyl]-5-oxopyrazolidin-1-yl}ethyl)benzoic acid, reference compound] |  |  |  |  |  | Ki (h-EP2; read-out: Ki on EP2): 4450 nM; release of ova (mature 10-week CD-1 mice; orally, single dose of 20 mg/kg): 10±3 ova; Ki (h-EP4 [2]; [7]): 14 nM
4 | O=C(O)c1ccc(CCN2C(=O)CCN2CCC(O)Cc2cccc(C(F)(F)F)c2)cc1 (centres unmarked) [4-[2-(2-{3-hydroxy-4-[3-(trifluoromethyl)phenyl]butyl}-5-oxopyrazolidin-1-yl)ethyl]benzoic acid, reference compound] |  |  |  |  |  | ED50 (mature 10-week CD-1 mice; [8]): 5 mg/kg; EC50 (h-EP4 [1]; read-out: EC50 measured as described in Example 84 (EP4)): 0.2 nM; Ki (h-EP4 [2]; [7]): 23 nM
5 | CCCC1([C@H](O)C/C=C/[C@H]2[C@H](O)CC(=O)[C@@H]2CCCCCCC(=O)OC)CCC1 [Butaprost, reference compound] |  |  | > 30 |  | > 10000 | 
6 | CCCCC[C@H](O)/C=C/[C@H]1CCC(=O)N1CCc1ccc(C(=O)O)cc1 [Example 1, 4-(2-{(2R)-2-[(1E,3S)-3-hydroxyoct-1-enyl]-5-oxopyrrolidin-1-yl}ethyl) benzoic acid] | 120 | 22 | 3.8 | 2 |  | ED50 ([3]; iv, read-out: calculated effective dose (ED50), bronchoconstriction): ~0.0017 mg/kg; ED50 ([3]; IT route of administration, read-out: calculated ED50, bronchoconstriction): 0.0024 mg/kg; calculated ED50, bronchoconstriction ([3]; IT route of administration): 0.72 μg/GP; effect on blood pressure and heart beat ([3]; i.v., 3 10^−5 up to 0.3 mg/kg): not altering neither blood pressure nor heart beat; average of ova obtained (mature 10-week CD-1 mice; Group 4: 10 mg/kg s.c.): an average of 25 ova were obtained for Group 4;; average of ova obtained (mature 10-week CD-1 mice; Group 5: 30 mg/kg s.c.): an average of 22.4 ova were obtained for Group 5;; ED50 (mature 10-week CD-1 mice; [8]): 3.9 mg/kg; ED50 (mature 10-week CD-1 mice; oral, 24 h fasted animals, read-out: calculated ED50, ovulation induction): 21.1 mg/kg; ED50 (mature 10-week CD-1 mice; oral, non-fasted animals, read-out: calculated ED50, ovulation induction): 22 mg/kg; activity in the mice ovulation induction model (mature 10-week CD-1 mice; subcutaneous (sc), oral (po) and intravenous (iv) routes): active
7 | O=C(O)c1ccc(CCN2C(=O)CC[C@@H]2/C=C/[C@@H](O)C2(c3ccccc3)CC2)cc1 [Example 7, 4-(2-{(2R)-2-[(1E,3R)-3-hydroxy-3-(1-phenylcyclopropyl)prop-1-enyl]-5 oxopyrrolidin-1-yl}ethyl)benzoic acid] | 220 |  | 0.73 | 16 | 2 | 
8 | O=C(O)c1ccc(CCN2C(=O)CC[C@@H]2/C=C/[C@H](O)C2(c3ccccc3)CC2)cc1 [Example 8, 4-(2-{(2R)-2-[(1E,3S)-3-hydroxy-3-(1-phenylcyclopropyl)prop-1-enyl]-5-oxopyrrolidin-1-yl}ethyl)benzoic acid] | 1930 |  |  | 25 |  | 
9 | O=C(O)c1ccc(CCN2C(=O)CC[C@@H]2/C=C/[C@@H](O)Cc2cccc(Cl)c2)cc1 [Example 9, 4-(2-{(2R)-2-[(1E,3S)-3-hydroxy-4-(3-chlorophenyl)but-1-enyl]-5-oxopyrrolidin-1-yl}ethyl)benzoic acid] |  | 1 |  |  | 0.5 | EC50 (h-EP4 [1]; [6]): 30 nM
10 | CCCCCC[C@H](O)/C=C/[C@H]1CCC(=O)N1CCc1ccc(C(=O)O)cc1 [Example 10, 4-(2-{(2R)-2-[(1E,3S)-3-hydroxynon-1-enyl]-5-oxopyrrolidin-1-yl}ethyl) benzoic acid] |  |  |  |  | 1 | 
11 | O=C(O)c1ccc(CCN2C(=O)CC[C@@H]2/C=C/[C@@H](O)Cc2ccccc2)cc1 [Example 31, 4-[2-{(2R)-2-[(1E,3S)-3-hydroxy-4-phenylbut-1-enyl]-5-oxopyrrolidin-1-yl}ethyl)benzoic acid] |  | 1 | 0.32 |  | 0.05 | ID50 (TNFα): 0.003 mg/kg
12 | CCCCC1([C@H](O)/C=C/[C@H]2CCC(=O)N2CCc2ccc(C(=O)O)cc2)CCC1 [Example 45, 4-(2-{(2R)-2-[(1E,3R)-3-(1-butylcyclobutyl)-3-hydroxyprop-1-enyl]-5-oxopyrrolidin-1-yl}ethyl)benzoic acid] |  | 1 |  |  | 2 | ID50 (TNFα): 0.010 mg/kg; EC50 (h-EP4 [1]; [6]): 0.3 nM
13 | CCCCC[C@H](O)/C=C/[C@H]1[C@H](O)CC(=O)[C@@H]1C/C=C\CCCC(=O)O [PGE2, reference compound] |  |  |  |  |  | average of ova obtained (mature 10-week CD-1 mice; Group 3: 13.5 mg/kg): an average of 19.4 ova were obtained for Group 3;
14 | CS(=O)(=O)NC(=O)CCC/C=C\C[C@H]1C(=O)C[C@@H](O)[C@@H]1/C=C/[C@@H](O)COc1ccccc1 [Sulprostone, reference compound] |  |  | > 27 |  | 7740 | 
